Source: patent US7390837B2, “Germicidal compositions containing phenylmalonaldehyde-type compounds, or mixtures of phenylmalonaldehyde-type compounds and phthalaldehydes, and methods of using such compositions for disinfection or sterilization” (Ethicon, Inc., priority 2004, dated 2008)

Columns and labels:
[1] = test system: Mycobacterium terrae bacteria; assay: bacterial suspension test; type: cell-based; details: for Germicidal Efficacy: summary Table 14
Procedure: The bacterial suspension test that was employed is described in Section VII.
The solutions were prepared by adding the appropriate amounts of the germicidal compounds to an aqueous solution. Unless otherwise mentioned all concentrations reported herein are expressed in (w/v) %. The pH of the solution was not adjusted. The tests were conducted at a temperature of about 20° C. (room temperature). The results are presented in terms of log reductions/mL. It is understood that these examples, as well as the other examples herein, are to be construed as merely illustrative, and not limiting.
In this test method, 9 mL of the germicide to be tested is placed in a tube, put into a water bath and allowed to come to the desired temperature. One mL of the test organism, including at least 7 logs/mL of Mycobacterium terrae bacteria, is added to the 9 mL of the germicide to be tested. […] It will be appreciated by those skilled in the art that other concentrations may be utilized by proper dilution and accounting.
At appropriate time intervals, 1 mL aliquots of the germicide-cell suspension were removed and added directly into 9 mL of a 1% glycine solution (neutralizer) and mixed thoroughly to neutralize the germicide in the transferred suspension. The glycine solution was prepared from solid glycine, which is available from VWR Scientific Products, among others. The above-identified 10 mL neutralized solution was then poured through a membrane filter having an average pore size of 0.45 micrometers. The filter was then rinsed twice with at least 150 mL of the 1% glycine solution per rinse. The filter was then placed on an agar plate and incubated for twenty-one days at 37° C. In the above procedure, if dilution was needed, then the 1 mL germicidal-cell suspension was diluted in 99 mL of a phosphate buffer before addition to the 9 mL of the 1% glycine solution. The phosphate buffer was DiLu-LoK™ Butterfields Phosphate Buffer, available from Hardy Diagnostics, of Santa Maria, Calif.
The surviving colonies are then counted. The data is plotted as S/So vs. time. So is the initial count of the bacteria in the above 10 mL solution which is at least 10^6 bacteria/mL, and S is the surviving bacteria from the above filter on the agar plate. The results of the experiments were presented in terms of log reductions. Log reduction is the difference between log(So) and log(S). As one example, if log(So)=6.2, and if there were 100 survivors, then the log(S)=2, and the log reduction was reported as 4.2.

solubility in water = type: physicochemical

O=Cc1ccc(Cl)cc1C=O [4-chloro-phthalaldehyde]
Log Reductions/mL ([1]; 2.7 w/v % in 20% isopropanol, 20° C., 5 min): Total Kill

O=Cc1ccccc1C=O [OPA, phthalaldehyde]
solubility in water (solubility in water): about 5 % by weight | Germicidal Efficacy [1]: Good

O=Cc1ccc(F)cc1C=O [4-fluoro-phthalaldehyde]
Log Reductions/mL ([1]; 0.25%, 20° C., exposure time 60 minutes): Total Kill

4-pyridinyl-propanedial
Log Reductions/mL ([1]; Saturated (~2.3% w/v), 5 min, 20° C.): 4.0 log reductions/mL

O=Cc1ccc(C=O)cc1 [TPA, terephthalaldehyde, reference compound]
Log Reductions/mL ([1]; 0.2%, dissolved in 20% isopropanol, 20° C., 5 min): Confluent | Germicidal Efficacy [1]: Poor

O=CC(C=O)c1ccccc1 [phenyl-propanedial]
solubility in water (solubility in water): about 1% | Log Reductions/mL ([1]; 0.4%, 20° C., 60 min (Table 5)): Total Kill | Log Reductions/mL ([1]; 0.44%, 20° C., 60 min (Table 15)): Total Kill | Log Reductions/mL ([1]; 0.66%, 20° C., 15 min (Table 15)): Total Kill | Log Reductions/mL ([1]; 0.7%, 20° C., 15 min (Table 5)): Total Kill | logs killed ([1]; 1% solution, 5 minutes, 20° C.): more than 4 logs | Log Reductions/mL ([1]; ~1%, 20° C., 5 min (Table 15)): 4.5 log reductions/mL

O=CC(c1ccccc1)C(O)S(=O)(=O)[O-].[Na+] (centres unmarked) [1-hydroxy-3-oxo-2-phenyl-propane-1-sulfonic acid, sodium salt]
Log Reductions/mL ([1]; 0.6%, 20° C., 60 min, sodium salt): Total Kill | Log Reductions/mL ([1]; 2.5%, 20° C., 10 min, sodium salt): total kill

O=Cc1cccc(C=O)c1 [IPA, isophthalaldehyde, reference compound]
Log Reductions/mL ([1]; 0.3%, dissolved in 20% isopropanol, 20° C., 5 min (Table 11)): Confluent | Log Reductions/mL ([1]; 0.3%, dissolved in 20% isopropanol, 20° C., 5 min (Table 11), listed as EPA): confluent | Log Reductions/mL ([1]; 0.3%, dissolved in 20% isopropanol, 20° C., 5 min (Table 15)): Confluent | Germicidal Efficacy [1]: Poor

O=Cc1ccc(Br)cc1C=O [4-bromo-phthalaldehyde]
Log Reductions/mL ([1]; 0.1%, 20° C., exposure time 30 minutes): Total Kill

O=Cc1ccccc1C(O)S(=O)(=O)[O-].[Na+] (centres unmarked) [(2-formyl-phenyl)-hydroxy-methane sulfonic acid, sodium salt]
Log Reductions/mL ([1]; 9.1%, 20° C., 5 min, listed as (2-formyl-phenyl)-hydroxy-methane sulfonate, sodium salt): confluent | Log Reductions/mL ([1]; 9.1%, 20° C., 5 min, listed as H-SULF, sodium salt): Confluent
